Test results: patent US8652840B2, “Method for obtaining female germline stem cells and uses thereof” (The General Hospital Corporation, priority 2004, dated 2014)
Like-named read-outs stand apart in the source and are kept apart here.

Tests used:
[1] = system: oocyte-containing follicles; assay: In-vivo HDAC suppression with Trichostatin A, counts of oocyte-containing follicles; design: species or system mice
Description: (§1) Age-specified or timed-pregnant wild-type C57BL/6 and CD1 female mice were obtained from Charles River Laboratories, whereas AKR/J mice were obtained from Jackson Laboratories. Ovaries were fixed in 0.34N glacial acetic acid, 10% formalin, and 28% ethanol, paraffin embedded, and serially sectioned (8 μm). The sections were aligned in order on glass microscope slides, and stained with hematoxylin and picric methyl blue. The number of non-atretic or atretic primordial, primary, and preantral follicles was then determined. Primordial follicles were identified as having a compact oocyte surrounded by a single layer of flattened granulosa cells, while primary follicles were identified as having an enlarged oocyte surrounded by a single layer of cuboidal granulosa cells. Intermediate-stage follicles (compact or enlarged oocyte with a single layer of mixed flattened and cuboidal granulosa cells) were scored as primary. Preantral follicles were identified as having an enlarged oocyte surrounded by at least a partial or complete second layer of cuboidal granulosa cells, but no more than four complete layers of cuboidal granulosa cells. Only those follicles containing an oocyte with a clearly visible nucleus were scored. Follicles at the primordial, primary and preantral (immature) stages of development were scored as atretic if the oocyte was degenerating (convoluted, condensed) or fragmented. Grossly atretic follicles lacking oocyte remnants were not included in the analyses. Given that this procedure sampled one-fifth of the entire ovarian volume, the total number of follicles per ovary (healthy or atretic) was then estimated by multiplying the cumulative counts for each ovary by a correction factor of five (Zuckerman, S. (1951) Recent Prog. Horm. Res. 6: 63-108; Tilly, J. L. (2003) Reprod. Biol. Endocrinol. 1:1-11). A single trained ovarian histologist in a blinded fashion conducted all counts, and two other members of the group periodically evaluated random samples to verify accuracy and reproducibility of the data.
Animals were sacrificed 24 hours post-injection, histological preparations of ovaries were prepared, and oocyte-containing follicles were counted per standard laboratory procedures (see Example 1). Treatment with TSA caused a 53% increase in the number of total healthy immature oocyte-containing follicles per ovary when compared with ovaries of control mice given the vehicle treatment. Not only was the resting (primordial) pool of follicles increased by 42%, but also the number of early growing (primary) follicles was increased (FIG. 7c).

primordial follicles = system: primordial follicles; design: species or system mice; conditions: mouse, in vivo
Description: as §1, with “Given that this procedure sampled one-fifth of the entire ovarian volume, the total number of follicles per ovary (healthy or atretic) was then estimated by multiplying the cumulative counts for each ovary by a correction factor of five (Zuckerman, S. (1951) Recent Prog. Horm. Res. 6: 63-108; Tilly, J. L. (2003) Reprod. Biol. Endocrinol. 1:1-11).” left out, “data. […]” for “data.”
To clarify whether loss of primordial follicles observed in busulfan-treated females (FIG. 5a) results from toxicity to existing oocytes, ovaries were collected from female mice at multiple points during and after the busulfan dosing regimen described above, and they were analyzed for the incidence of primordial follicle atresia. […]

ovarian function = conditions: cited from earlier work
[2] = system: primordial and early growing follicles (oocytes); assay: Doxorubicin-synchronized oocyte death in adult female mice, germ cell dynamics; assay type: in vivo
Description: The existence of mammalian female germline stem cells implies an inherent capacity of the ovaries to generate, or regenerate following an insult, new stockpiles of resting (primordial) oocyte-containing follicles in a regulated fashion. To address this issue directly, adult female mice were injected with doxorubicin to synchronize oocyte death (Perez, G. I. et al, (1997) Nature Med. 3, 1228-32), and ovaries were collected at multiple intervals after drug exposure to assess germ cell dynamics.

[3] = prepubertal female mice, single i.p. injection 10 mg/kg, 24 hours post-injection

Q: With `CC(/C=C/C(=O)NO)=C\[C@@H](C)C(=O)c1ccc(N(C)C)cc1` [TSA, Trichostatin A] as the compound, how does the “increase in primordial follicle numbers” value ([1]; female mice at 240 days of age, within 24 h (data not shown)) read?
A: 89%

Q: And the “increase in healthy immature follicles (number)” value ([1]; prepubertal (13-day old) female mice, 10 mg/kg, 24 hours)?
A: more than 1,600

Q: What about the “increase in the number of total healthy immature oocyte-containing follicles per ovary versus vehicle” value [1, 3] of the same compound?
A: 53%

Q: What about the “increase of the resting (primordial) pool of follicles” value [1, 3] of the same compound?
A: 42%

Q: And the “number of early growing (primary) follicles” value [1, 3]?
A: increased

Q: With `CS(=O)(=O)OCCCCOS(C)(=O)=O` [busulfan] as the compound, how does the “plateau number of atretic primordial follicles” value (primordial follicles; female, 20 mg/kg, 5 days) read?
A: 46 per ovary

Q: What about the “reduction in the resting (primordial) oocyte pool” value (primordial follicles; female, 3 weeks) of the same compound?
A: 95%

Q: What about the “ratio of primordial to primary follicles, busulfan versus vehicle” value (primordial follicles) of the same compound?
A: No significant change

Q: And the “POF, cases of patients” value (ovarian function; in vivo)?
A: 19 of 19

Q: And the “hypogonadism indicative of premature ovarian failure (POF), cases of patients” value (ovarian function; in vivo)?
A: 20 of 21

Q: What about the “ovarian damage requiring hormonal replacement, cases of patients” value (ovarian function; in vivo) of the same compound?
A: 4 of 4

Q: For `O=P1(N(CCCl)CCCl)NCCCO1` (centres unmarked) [cyclophosphamide], which “POF, cases of patients” value (ovarian function; Grigg et al. 2000: both agents ages 14-57, median=38, cyclophosphamide alone ages 13-58, median=28) is on record?
A: 47 of 103

Q: Which results are given for `COc1cccc2c1C(=O)c1c(O)c3c(c(O)c1C2=O)C[C@@](O)(C(=O)CO)C[C@@H]3O[C@H]1C[C@H](N)[C@H](O)[C@H](C)O1` [doxorubicin]?
A: primordial and total immature follicle pools ([2]; between 24 and 36 h post-treatment (data not shown)): spontaneous regeneration; primordial and early growing follicles (oocytes) ([2]; within the first 24 h after treatment (data not shown)): rapid and extensive loss
